Experimental data from patent US9790218B2, “Small molecule activators of calcium-activated chloride channels and methods of use” (The Regents of the University of California, priority 2011, dated 2017).

Key:
[1] = tested on: non-CF human tracheal gland (HTG) serous cells; assay: Short-circuit current in human tracheal gland (HTG) serous cells; type: cell-based; conditions: T16Ainh-A01 pretreatment
Description: FIG. 5A-B. Airway epithelial chloride secretion. FIG. 5A. Short-circuit current in CF HBE cells. Eact and UTP (100 μM) were added in control (left) and IL-4 (10 ng/ml, 24 h, middle) treated CF HBE cells. (right) Summary of Eact-induced, T16Ainh-A01-sensitive peak current (mean±S.E., n=6-8, * P<0.05). ENaC was inhibited by 10 μM amiloride. FIG. 5B. Eact (10 μM) and UTP (100 μM) induced CaCC Cl^− current measured in primary cultures of non-CF human tracheal gland (HTG) serous cells. (left and gmiddle) TMEM16A, CFTR and ENaC were inhibited by pretreatment with T16Ainh-A01, CFTRinh-172 and amiloride, respectively. Inset: TMEM16A immunoblot in whole cell homogenates of CF HBE and HTG cells. (right) Summary of UTP and Eact-induced peak current in the presence and absence of T16Ainh-A01 (mean±S.E., n=3, * P<0.05). […]
Snapwell inserts containing TMEM16A-expressing FRT, HBE, CF HBE or HTG cells were mounted in Ussing chambers (Physiologic Instruments, San Diego, Calif.). […] Apical membrane current (for FRT cells) and short-circuit current were measured using an EVC4000 Multi-Channel V/I Clamp (World Precision Instruments, Sarasota, Fla.) and recorded using PowerLab/8sp (AD Instruments, Castle Hill, Australia). […]

[2] = tested on: human bronchi submucosal glands; assay: Airway submucosal gland fluid secretion in human bronchi; conditions: 30 μM T16Ainh-A01
Description: FIG. 6A-C. Airway submucosal gland fluid secretion in human bronchi. FIG. 6A. TMEM16A immunohistochemistry in CF (left) and non-CF (right) human bronchi showing apical membrane expression in serous gland epithelial cells (arrows). Scale bar: 20 μm. FIG. 6B. Mucous (fluid) secretion in human bronchi. (top) Images of mucus bubbles formed under oil in response to basolateral application of 300 nM carbachol (CCh) and 20 μM Eact. TMEM16A was inhibited by 30 μM T16Ainh-A01. Individual fluid bubbles marked with arrowheads. Scale bar: 0.5 mm. (bottom) CCh and Eact-induced secretion rates. Where indicated, tissues were pre-treated with T16Ainh-A01 (30 μM). Each point is the average of measurements made from 20 glands (mean±S.E. * P<0.05). FIG. 6C. Summary of human gland fluid secretion rates measured at 20 min after addition of 20 μM Eact, and 30 min after application of 300 nM carbachol (CCh) and 10 μM forskolin (20-66 glands from 3 tracheas and 4 bronchus). In CF-bronchi, 6 glands from one donor were stimulated by Eact. […]
Similar staining was found in non-CF and CF human bronchi. Fluid secretion was measured in individual submucosal glands from the increasing size of mucus (fluid) bubbles in which airway fragments were mounted in a 37° C. perfusion chamber and the mucosal solution was covered with oil.

CCc1c(C)nc(SCC(=O)Nc2nc(-c3ccc(OC)cc3)cs2)[nH]c1=O [T16Ainh-A01, reference compound]
effect of pretreatment on UTP- and Eact-induced Cl^− current [1]: largely abolished
effect of pre-treatment on gland fluid secretion [2]: abolished basal and agonist-stimulated gland fluid secretion
